Test results: patent publication US20230203023A1, “SALT AND CRYSTAL FORMS OF GLP-1R AGONISTS AND USES THEREOF” (QILU REGOR THERAPEUTICS INC., priority 2020, published 2023)
Structures can show the parent of a compound that is named as a salt. Marks after values point to notes of the source that are not given here. Blank lines part the entries; values can stand above or below the compound they belong to.

Tests used:
Assay type in all cases: physicochemical
[1] = Solid stability evaluation (II/II), HPLC in triplicate
Description: The chemical stability of 1:1 Compound II Citrate Salt (Form A) and 1:1 Compound II Tris Salt (Form B) was further evaluated at solid state, samples were stored under the ambient condition or 40° C./75% RH for 1 day and 3 days, respectively.

[2] = Solution stability evaluation in SGF (pH 1.8) and pH 8.0 buffer at RT
Description: Weigh 100 mg of sodium chloride and 50 mg of Triton X-100 into a 50-mL volumetric flask. Add appropriate volume of purified water and sonicate until all solids are completely dissolved. Add about 68 μL of 12 M HCl and sufficient purified water closely to the target volume and adjust to pH 1.8. Dilute to volume with purified water, mix well and check the pH with a pH meter.
Add sufficient purified water closely to the target volume and adjust to pH 8.0. Dilute to volume with purified water, mix well and check the pH with a pH meter. […]
Solution stability was evaluated for 1:1 Compound II Citrate Salt (Form A) and 1:1 Compound II Tris Salt (Form B) in SGF (pH 1.8) and pH 8.0 buffer at RT. Clear solutions were prepared at two concentrations (0.01 mg/mL, 0.05 mg/mL) and then placed at RT for 6 hours, 1/5 days or 6 hours, 1/3/7 days. […] The HPLC purity and pH value were tested and the results were summarized from Table 7-3-1 to Table 7-3-4.

[3] = VH-XRPD, dehydration of the hydrate
Description: VH-XRPD and single crystal structure determination were performed for 1:1 Compound I Tris Salt (Form A) and it was identified as a monohydrate, which would dehydrate at the ≤30%RH condition.
VH-XRPD was performed for a 1:1 Compound II tris salt (Form B) sample for further identification. […] Combining the characterization results, it is believe that 1:1 Compound II tris salt (Form B) is a hydrate, which would dehydrate below ≤10% RH.

Polymorph screening = settings: solution crystallization and solid transition methods
Description: Polymorph screening experiments on 1:1 Compound I Tris Salt (Form A) were performed under vairous conditions using different solution crystallization or solid transition methods, including anti-solvent addition, reverse anti-solvent addition, slow evaporation, slow cooling, slurry at RT, slurry at 50° C., slurry cycling 5-50° C., vapor-solid diffusion, vapor-solution diffusion, polymer induced crystallization, and grinding.

[4] = Ambient condition (open), 1 day
[5] = Ambient condition (open), 3 days
[6] = 0.01 mg/mL, pH 1.8 (SGF), Initial
[7] = 0.01 mg/mL, pH 1.8 (SGF), RT, 6 hours
[8] = 0.01 mg/mL, pH 8.0 (50 mM phosphate), Initial
[9] = 0.01 mg/mL, pH 8.0 (50 mM phosphate), RT, 6 hours
[10] = 0.05 mg/mL, pH 1.8 (SGF), Initial
[11] = 0.05 mg/mL, pH 1.8 (SGF), RT, 6 hours
[12] = 0.05 mg/mL, pH 8.0 (50 mM phosphate), Initial
[13] = 0.05 mg/mL, pH 8.0 (50 mM phosphate), RT, 6 hours
[14] = 1 day, 0.01 mg/mL, pH 1.8 (SGF), RT
[15] = 1 day, 0.01 mg/mL, pH 8.0 (50 mM phosphate), RT
[16] = 1 day, 0.05 mg/mL, pH 1.8 (SGF), RT
[17] = 1 day, 0.05 mg/mL, pH 8.0 (50 mM phosphate), RT
[18] = 5 days, 0.01 mg/mL, pH 1.8 (SGF), RT
[19] = 5 days, 0.01 mg/mL, pH 8.0 (50 mM phosphate), RT
[20] = 5 days, 0.05 mg/mL, pH 1.8 (SGF), RT
[21] = 5 days, 0.05 mg/mL, pH 8.0 (50 mM phosphate), RT
[22] = 0.01 mg/mL, pH 1.8 (SGF), RT, 1 day
[23] = 0.01 mg/mL, pH 1.8 (SGF), RT, 5 days
[24] = 0.01 mg/mL, pH 8.0 (50 mM phosphate), RT, 1 day
[25] = 0.01 mg/mL, pH 8.0 (50 mM phosphate), RT, 5 days
[26] = 6 hours, 0.01 mg/mL, pH 1.8 (SGF), RT
[27] = 6 hours, 0.01 mg/mL, pH 8.0 (50 mM phosphate), RT
[28] = 6 hours, 0.05 mg/mL, pH 1.8 (SGF), RT
[29] = 6 hours, 0.05 mg/mL, pH 8.0 (50 mM phosphate), RT
[30] = 3 days, 0.01 mg/mL, pH 1.8 (SGF), RT
[31] = 3 days, 0.01 mg/mL, pH 8.0 (50 mM phosphate), RT
[32] = 3 days, 0.05 mg/mL, pH 1.8 (SGF), RT
[33] = 3 days, 0.05 mg/mL, pH 8.0 (50 mM phosphate), RT
[34] = 7 days, 0.01 mg/mL, pH 1.8 (SGF), RT
[35] = 7 days, 0.01 mg/mL, pH 8.0 (50 mM phosphate), RT
[36] = 7 days, 0.05 mg/mL, pH 1.8 (SGF), RT
[37] = 7 days, 0.05 mg/mL, pH 8.0 (50 mM phosphate), RT
[38] = Initial, 0.01 mg/mL, pH 1.8 (SGF), RT
[39] = Initial, 0.01 mg/mL, pH 8.0 (50 mM phosphate), RT
[40] = Initial, 0.05 mg/mL, pH 1.8 (SGF), RT
[41] = Initial, 0.05 mg/mL, pH 8.0 (50 mM phosphate), RT

Ave. Purity (area %) ([1]; 40° C./75% RH (open), 1 day): 97.8 area %
Ave. Purity (area %) ([1]; 40° C./75% RH (open), 3 days): 97.9 area %
Ave. Purity (area %) [1, 4]: 97.8 area %
Ave. Purity (area %) [1, 5]: 97.8 area %
Ave. Purity (area %) ([1]; Initial): 97.9 area %
Purity (% area) [2, 6]: 100.00 % area
pH [2, 6]: 1.8
Purity (% area) [2, 7]: 100.00 % area
Purity vs. Initial (%) [2, 7]: 100.0%
pH [2, 7]: 1.8
Purity (% area) [2, 8]: 98.67 % area
pH [2, 8]: 8.0
Purity (% area) [2, 9]: 97.89 % area
Purity vs. Initial (%) [2, 9]: 99.2%
pH [2, 9]: 8.0
Purity (% area) [2, 10]: 97.84 % area
pH [2, 10]: 1.8
Purity (% area) [2, 11]: 97.54 % area
Purity vs. Initial (%) [2, 11]: 99.7%
pH [2, 11]: 1.8
Purity (% area) [2, 12]: 98.22 % area
pH [2, 12]: 8.0
Purity (% area) [2, 13]: 98.03 % area
Purity vs. Initial (%) [2, 13]: 99.8%
pH [2, 13]: 8.0
Purity (% area) [2, 14]: 98.51 % area
Purity vs. Initial (%) [2, 14]: 98.5%
pH [2, 14]: 1.8
Purity (% area) [2, 15]: 97.36 % area
Purity vs. Initial (%) [2, 15]: 98.7%
pH [2, 15]: 8.0
Purity (% area) [2, 16]: 96.61 % area
Purity vs. Initial (%) [2, 16]: 98.7%
pH [2, 16]: 1.8
Purity (% area) [2, 17]: 97.95 % area
Purity vs. Initial (%) [2, 17]: 99.7%
pH [2, 17]: 8.0
Purity (% area) [2, 18]: 94.05 % area
Purity vs. Initial (%) [2, 18]: 94.1%
pH [2, 18]: 1.9
Purity (% area) [2, 19]: 97.14 % area
Purity vs. Initial (%) [2, 19]: 98.5%
pH [2, 19]: 7.9
Purity (% area) [2, 20]: 92.31 % area
Purity vs. Initial (%) [2, 20]: 96.1%
pH [2, 20]: 1.8
Purity (% area) [2, 21]: 97.75 % area
Purity vs. Initial (%) [2, 21]: 99.5%
pH [2, 21]: 8.0
Structure (SMILES): N#Cc1ccc(COc2cccc(C3=CCN(Cc4nc5ccc(C(=O)O)cc5n4C[C@@H]4CCO4)CC3)n2)c(F)c1 [Citrate salt Form A, (S)-2-((6-((4-cyano-2-fluorobenzyl)oxy)-3′,6′-dihydro-[2,4′-bipyridin]-1′(2′H)-yl)methyl)-1-(oxetan-2-ylmethyl)-1H-benzo[d]imidazole-6-carboxylic acid]

Ave. Purity (area %) ([1]; 40° C./75% RH (open), 1 day): 94.8 area %
Ave. Purity (area %) ([1]; 40° C./75% RH (open), 3 days): 94.7 area %
Ave. Purity (area %) [1, 4]: 94.8 area %
Ave. Purity (area %) [1, 5]: 94.8 area %
Ave. Purity (area %) ([1]; Initial): 94.5 area %
Chemical stability at solid state, in words ([1]; ambient condition or 40° C./75% RH, 1 day and 3 days): better chemical stability
Relative humidity at which the hydrate would dehydrate [3]: ≤ 30 % RH
Purity (% area) [2, 6]: 100.00 % area
pH [2, 6]: 1.8
Purity (% area) [2, 7]: 100.00 % area
Purity vs. Initial (%) [2, 7]: 100.0%
pH [2, 7]: 1.8
Purity (% area) [2, 22]: 100.00 % area
Purity vs. Initial (%) [2, 22]: 100.0%
pH [2, 22]: 1.8
Purity (% area) [2, 23]: 97.40 % area
Purity vs. Initial (%) [2, 23]: 97.4%
pH [2, 23]: 1.8
Purity (% area) [2, 8]: 97.70 % area
pH [2, 8]: 8.1
Purity (% area) [2, 9]: 96.92 % area
Purity vs. Initial (%) [2, 9]: 99.2%
pH [2, 9]: 8.0
Purity (% area) [2, 24]: 96.07 % area
Purity vs. Initial (%) [2, 24]: 98.3%
pH [2, 24]: 8.0
Purity (% area) [2, 25]: 94.34 % area
Purity vs. Initial (%) [2, 25]: 96.6%
pH [2, 25]: 8.0
Stability of the pH 1.8 solution, in words ([2]; SGF pH 1.8, RT, after 1 day): No significant degradation
Stability of the pH 8.0 solution, in words ([2]; pH 8.0 buffer, RT): decreased slightly
Structure (SMILES): O=C(O)c1ccc2nc(CN3CC=C(c4cccc(OCc5ccc(Cl)cc5F)c4)CC3)n(C[C@@H]3CCO3)c2c1 [Tris salt Form A, (S)-2-((4-(3-((4-chloro-2-fluorobenzyl)-oxy)phenyl)-3,6-dihydropyridin-1(2H)-yl)methyl)-1-(oxetan-2-ylmethyl)-1H-benzo[d]-imidazole-6-carboxylic acid]
Form change in polymorph screening (Polymorph screening): did not change under most of the test conditions

Ave. Purity (area %) ([1]; 40° C./75% RH (open), 1 day): 94.5 area %
Ave. Purity (area %) ([1]; 40° C./75% RH (open), 3 days): 94.8 area %
Ave. Purity (area %) [1, 4]: 94.4 area %
Ave. Purity (area %) [1, 5]: 94.2 area %
Ave. Purity (area %) ([1]; Initial): 95.5 area %
Relative humidity at which the hydrate would dehydrate [3]: ≤ 10 % RH
Purity (% area) [2, 26]: 94.92 % area
Purity vs. Initial (%) [2, 26]: 99.7%
pH [2, 26]: 1.8
Purity (% area) [2, 27]: 98.97 % area
Purity vs. Initial (%) [2, 27]: 99.9%
pH [2, 27]: 8.0
Purity (% area) [2, 28]: 97.53 % area
Purity vs. Initial (%) [2, 28]: 99.3%
pH [2, 28]: 1.8
Purity (% area) [2, 29]: 99.28 % area
Purity vs. Initial (%) [2, 29]: 100.0%
pH [2, 29]: 8.0
Purity (% area) [2, 14]: 94.11 % area
Purity vs. Initial (%) [2, 14]: 98.8%
pH [2, 14]: 1.8
Purity (% area) [2, 15]: 98.38 % area
Purity vs. Initial (%) [2, 15]: 99.3%
pH [2, 15]: 8.0
Purity (% area) [2, 16]: 96.40 % area
Purity vs. Initial (%) [2, 16]: 98.1%
pH [2, 16]: 1.8
Purity (% area) [2, 17]: 98.86 % area
Purity vs. Initial (%) [2, 17]: 99.6%
pH [2, 17]: 8.0
Purity (% area) [2, 30]: 91.81 % area
Purity vs. Initial (%) [2, 30]: 96.4%
pH [2, 30]: 1.8
Purity (% area) [2, 31]: 98.26 % area
Purity vs. Initial (%) [2, 31]: 99.2%
pH [2, 31]: 8.0
Purity (% area) [2, 32]: 93.38 % area
Purity vs. Initial (%) [2, 32]: 95.0%
pH [2, 32]: 1.8
Purity (% area) [2, 33]: 98.98 % area
Purity vs. Initial (%) [2, 33]: 99.7%
pH [2, 33]: 8.0
Purity (% area) [2, 34]: 87.14 % area
Purity vs. Initial (%) [2, 34]: 91.5%
pH [2, 34]: 1.8
Purity (% area) [2, 35]: 97.31 % area
Purity vs. Initial (%) [2, 35]: 98.3%
pH [2, 35]: 8.0
Purity (% area) [2, 36]: 87.15* % area
Purity vs. Initial (%) [2, 36]: 88.7%
pH [2, 36]: 1.8
Purity (% area) [2, 37]: 98.75 % area
Purity vs. Initial (%) [2, 37]: 99.5%
pH [2, 37]: 8.0
Purity (% area) [2, 38]: 95.25 % area
pH [2, 38]: 1.8
Purity (% area) [2, 39]: 99.04 % area
pH [2, 39]: 8.0
Purity (% area) [2, 40]: 98.26 % area
pH [2, 40]: 1.8
Purity (% area) [2, 41]: 99.27 % area
pH [2, 41]: 8.0
Structure (SMILES): N#Cc1ccc(COc2cccc(C3=CCN(Cc4nc5ccc(C(=O)O)cc5n4C[C@@H]4CCO4)CC3)n2)c(F)c1 [Tris salt Form B, (S)-2-((6-((4-cyano-2-fluorobenzyl)oxy)-3′,6′-dihydro-[2,4′-bipyridin]-1′(2′H)-yl)methyl)-1-(oxetan-2-ylmethyl)-1H-benzo[d]imidazole-6-carboxylic acid]
